Test results reported in patent US20130137776A1, “METHOD FOR INHIBITING HISTONE GENE TRANSCRIPTION AND EXPRESSION” (CHINA MEDICAL UNIVERSITY, priority 2011, published 2013).

How the values were obtained:
[1] = tested on: histone gene transcription of the HSC-3 cancer cell line; experiment: Microarray analysis of gene expression in hinokitiol-treated HSC-3 cells; assay type: cell-based; details: 6.25 μM or 12.5 μM hinokitiol, 24 hours, Affymetrix Human Gene 1.0 ST microarray
Experimental: (1) Cell Culture and RNA Collection
Human oral squamous-cell carcinoma (OSCC) cell lines, such as HSC-3 (JCRB0623, Japan), was cultured. The relative culture methods can be seen in Shieh, T. M. et al., Association of expression aberrances and genetic polymorphisms of lysyl oxidase with areca-associated oral tumorigenesis. Clin Cancer Res, 2007. 13(15 Pt 1): p. 4378-85; Chen, J. C. et al., Gypenosides induced G0/G1 arrest via CHk2 and apoptosis through endoplasmic reticulum stress and mitochondria-dependent pathways in human tongue cancer SCC-4 cells. Oral Oncol, 2009. 45(3): p. 273-83; and Lin, C. C. et al., Berberine induces apoptosis in human HSC-3 oral cancer cells via simultaneous activation of the death receptor-mediated and mitochondrial pathway. Anticancer Res, 2007. 27(5A): p. 3371-8, which are entirely incorporated hereinto by reference.
Then, the HSC-3 cell lines were divided into four groups: two groups of the cells were not treated by hinokitiol (0 μM); one group of the cells was treated by 6.25 μM hinokitiol (commercially purchased from Sigma-Aldrich company); and one group of the cells was treated by 12.5 μM hinokitiol. […] The content and purity of the obtained RNA were respectively determined at wavelengths of 260 nm and 280 nm by using a micro-volume spectrophotometer (Nanodrop ND-1000, commercially purchased from Labtech. International company). […]

[2] = tested on: histone H3 expression in HSC-3 cancer cell line; experiment: Western blotting analysis of histone H3, HSC-3 cancer cell line; assay type: cell-based, human; details: 6.25 μM and 12.5 μM, 24 hours, actin internal control
Experimental: (§1) Normal human oral keratinocyte cell lines (OK, obtained from China Medical University Hospital, Taiwan), HSC-3 cancer cell lines, and SAS cancer cell lines (OSCC cancer cell line, obtained from the tongue tissue of a patient in National Yang Ming University, Taiwan) were cultured (the protocols related to cell culture can be seen in Lu, S. Y. et al., Ripe areca nut extract induces G1 phase arrests and senescence-associated phenotypes in normal human oral keratinocyte. Carcinogenesis, 2006. 27 (6), p. 1273-84; and Shieh, T. M. et al., Association of expression aberrances and genetic polymorphisms of lysyl oxidase with areca-associated oral tumorigenesis. Clin Cancer Res, 2007. 13 (15 Pt 1), p. 4378-85, which are entirely incorporated hereinto by reference). The cells were respectively treated by 0 μM, 6.25 μM, and 12.5 μM hinokitiol for 24 hours, and scratched from the cell culture dishes and collected by centrifugation. Then, western blotting analysis was performed (see Lu, S. Y. et al., Ripe areca nut extract induces G1 phase arrests and senescence-associated phenotypes in normal human oral keratinocyte. Carcinogenesis, 2006. 27 (6), p. 1273-84, which is entirely incorporated hereinto by reference). […]

[3] = tested on: histone H3 expression in SAS cancer cell line; experiment: Western blotting analysis of histone H3, SAS cancer cell line; assay type: cell-based, human; details: 6.25 μM and 12.5 μM, 24 hours, actin internal control
Experimental: as §1

HSC-3 cells = experiment: Cell cycle analysis by flow cytometry (PI staining); assay type: cell-based, human; details: 24 hours, 0 μM control 31.38%
Experimental: HSC-3 cells (2×10^5/4 ml) were respectively treated by 0 μM, 3.12 μM, and 6.25 μM hinokitiol for 24 hours, washed by an ice-cold PBS buffer solution twice, and fixed in 70% ice-cold ethanol at 4° C. for 4 hours. Then, the cells were stained by propidium iodide (PI), and a cell cycle analysis was performed by using a BD FACSAria flow cytometer (commercially purchased from Becton Dickinson, Germany). The obtained data was analyzed by MULTICycle Software (commercially purchased from Coulter company, U.S.A.).

[4] = tested on: histone H3 expression in normal human oral keratinocyte cell line (OK); experiment: Western blotting analysis of histone H3, normal human oral keratinocyte cell line; assay type: cell-based; details: 6.25 μM and 12.5 μM, 24 hours, actin internal control
Experimental: as §1

[5] = tested on: histone H2B and H3 gene expression in HSC-3 cell line; experiment: Reverse transcription-PCR of histone H2B and H3 gene expression; assay type: cell-based, human; details: 6.25 μM, 24 hours, GAPDH internal control
Experimental: HSC-3 cell lines were cultured and respectively treated by 0 μM and 6.25 μM hinokitiol for 24 hours. Then, the cells were scratched from the cell culture dishes and collected by centrifugation. Afterwards, reverse transcription-PCR (RT-PCR) was performed. The protocols and conditions related to RT-PCR can be seen in Shieh, T. M. et al., Association of expression aberrances and genetic polymorphisms of lysyl oxidase with areca-associated oral tumorigenesis. Clin Cancer Res, 2007. 13 (15 Pt1), p. 4378-85; and Shieh, T. M. et al., Association between the polymorphisms in exon 12 of hypoxia-inducible factor-1alpha and the clinicopathological features of oral squamous cell carcinoma. Oral Oncol, 2010. 46 (9), p. e47-53, which are entirely incorporated hereinto by reference.
The gene expression level of Glyceraldehyde-3-phosphate dehydrogenase (GAPDH) was used as an internal control. The variation of the gene expression level of histone H2B and H3 in HSC3 cell lines treated by hinokitiol was compared with the control group, and the results are shown in FIG. 2. At least two independent RT-PCR experiments were performed to validate the reproducibility of the analysis.

[6] = compound of formula (I) and its salts; cited from Imai et al. 2006 and Ema et al. 2004 (rats); cited from earlier work

In the case of `CC(C)c1cccc(O)c(=O)c1` [hinokitiol], the “expression of histone genes (H1d, H3g, H3j, H3a, H3h, H2bm, H2bg, H3l, H2bf, H2a) vs untreated control” value [1] is reported as “decreased by above two-fold”, the “expression level of histone H3” value [2] is reported as “significantly decreased” and the “expression level of histone H3” value [3] is reported as “significantly decreased”. For the same molecule, the “proportion of the cells in the synthesis phase (S phase)” value (HSC-3 cells; 3.125 μM hinokitiol) was 41.19%, the “proportion of the cells in the synthesis phase (S phase)” value (HSC-3 cells; 6.25 μM hinokitiol) was 43.89% and the “expression level of histone H3” value [4] was “not affected”. For the same molecule, the “gene expression level of histone H2B” value [5] was “decreased”, the “gene expression level of histone H3” value [5] was “decreased” and the biological toxicity [6] was “low biological toxicity”.
